From ChEMBL document CHEMBL5357007, “Withanolides from Physalis angulata var. villosa and the Relative Configurational Revision of Some Known Analogs” (J Nat Prod, 2024)

How the values were obtained:
Format in all cases: functional, cell-based
HCT-116 = test: Cytotoxicity against human HCT-116 cells assessed as inhibition of cell growth incubated for 72 hrs by CCK-8 assay; conditions: HCT-116, 72 h
MDA-MB-231 = test: Cytotoxicity against human MDA-MB-231 cells assessed as inhibition of cell growth incubated for 72 hrs by CCK-8 assay; conditions: MDA-MB-231, 72 h
A549 = test: Cytotoxicity against human A549 cells assessed as inhibition of cell growth incubated for 72 hrs by CCK-8 assay; conditions: A549, 72 h

Row | SMILES | IC50 (HCT-116) [µM] | IC50 (MDA-MB-231) [µM] | IC50 (A549) [µM]
1 | CC(=O)O[C@H]1C=C([C@H](C)[C@H]2CC(C)=C(C)C(=O)O2)[C@@]2(C)CC[C@H]3[C@@H](C[C@H]4O[C@]45C[C@@H](O)CC(=O)[C@]35C)[C@@]12O | > 10 | > 10 | > 10
2 | CCO[C@H]1CC(=O)[C@]2(C)[C@H]3CC[C@]4(C)C([C@H](C)[C@H]5CC(C)=C(C)C(=O)O5)=C[C@H](OC(C)=O)[C@]4(O)[C@@H]3C[C@H]3O[C@]32[C@H]1O | > 10 | > 10 | > 10
3 | CC(=O)O[C@H]1C[C@H]([C@H](C)[C@H]2CC(C)=C(C)C(=O)O2)[C@@]2(C)CCC3[C@@H](C[C@@H](O)C4=CC=CC(=O)[C@@]43C)[C@@]12O (stereo not given in full) | > 10 | > 10 | > 10
4 | CC(=O)O[C@H]1[C@H](O)[C@](O)([C@H](C)[C@H]2CC(C)=C(C)C(=O)O2)[C@@]2(C)CC[C@H]3[C@@H](C[C@H]4O[C@]45[C@@H](O)C=CC(=O)[C@]35C)[C@@]12O | 7.2 | 9.1 | > 10
5 | CC(=O)O[C@H]1[C@@H]2O[C@]2([C@@H](C)[C@H]2CC(C)=C(C)C(=O)O2)[C@@]2(C)CC[C@H]3[C@@H](C[C@H](Cl)[C@]4(O)CC=CC(=O)[C@]34C)[C@@]12O | > 10 | > 10 | > 10
6 | CCO[C@H]1CC(=O)[C@]2(C)[C@H]3CC[C@]4(C)[C@@H]([C@H](C)[C@H]5CC(C)=C(C)C(=O)O5)C[C@H](O)[C@]4(O)[C@@H]3C[C@H]3O[C@]32[C@H]1O | > 10 | > 10 | > 10
7 | CC(=O)O[C@H]1C=C([C@H](C)[C@H]2CC(C)=C(C)C(=O)O2)[C@@]2(C)CC[C@H]3[C@@H](CC(=O)C4CC=CC(=O)[C@@]43C)[C@@]12O (stereo not given in full) | 9.2 | > 10 | > 10
8 | CC(=O)O[C@H]1C[C@H]([C@H](C)[C@@H]2OC(=O)C(C)=C(C)[C@@H]2O)[C@@]2(C)CC[C@H]3[C@@H](C[C@H]4O[C@]45[C@@H](O)C=CC(=O)[C@]35C)[C@@]12O | 8.5 | > 10 | 9.7
9 | CCO[C@H]1CC(=O)[C@]2(C)[C@H]3CC[C@@]4(C)[C@](O)([C@@H](OC(C)=O)C[C@@]4(O)[C@H](C)[C@H]4CC(C)=C(C)C(=O)O4)[C@@H]3C[C@H]3O[C@]32C1 | > 10 | > 10 | > 10
10 | CCO[C@H]1CC(=O)[C@]2(C)[C@H]3CC[C@@]4(C)[C@@](O)([C@@H]3C[C@H]3O[C@]32[C@H]1O)[C@@H](OC(C)=O)[C@@H]1O[C@@]14[C@H](C)[C@H]1CC(C)=C(C)C(=O)O1 | > 10 | > 10 | > 10
11 | CC(=O)O[C@H]1C=C([C@H](C)[C@H]2CC(C)=C(C)C(=O)O2)[C@@]2(C)[C@H](O)C[C@H]3[C@@H](C[C@@H](O)[C@@]4(O)CC=CC(=O)[C@]34C)[C@@]12O | > 10 | > 10 | > 10
12 | CO[C@H]1C=C([C@H](C)[C@H]2CC(C)=C(C)C(=O)O2)[C@@]2(C)CC[C@H]3[C@@H](C[C@@H](O)[C@@]4(Cl)CC=CC(=O)[C@]34C)[C@@]12O | 8.8 | 9.4 | > 10
13 | CCO[C@H]1CC(=O)[C@]2(C)[C@H]3CC[C@]4(C)C([C@H](C)[C@H]5CC(C)=C(C)C(=O)O5)=C[C@H](OC(C)=O)[C@]4(O)[C@@H]3C[C@H]3O[C@]32C1 | > 10 | > 10 | > 10
14 | CC(=O)O[C@H]1C[C@](O)([C@H](C)[C@H]2CC(C)=C(C)C(=O)O2)[C@@]2(C)CC[C@H]3[C@@H](C[C@H]4O[C@]45[C@@H](O)C=CC(=O)[C@]35C)[C@@]12O | 1.8 | 4.5 | 5.9
15 | CC1=C(C)C(=O)O[C@@H]([C@@H](C)C2=C[C@H](O)[C@]3(O)[C@@H]4C[C@H]5O[C@]56[C@@H](O)CCC(=O)[C@]6(C)[C@H]4CC[C@]23C)C1 | > 10 | > 10 | > 10
